# Reference: paper PMC4706618, “Comparison of bactericidal and cytotoxic activities of trichogin analogs” (Data in Brief, 2015)
# Where two headings read alike, the source gives them in different places. Non-standard residues stand in square brackets, D forms with d. Residues, ends and D or L forms follow the SMILES beside them. *: point of attachment. Leu(ol) = CC(C)C[C@H](N)CO; Octanoyl = CCCCCCCC(=O)*; Aib = CC(C)(N)C(=O)O
# Legend:
# [1] = tested on: S. epidermidis ATCC 700565; assay type: cell-based, Staphylococcus epidermidis
# Protocol: (§1) E. coli ATCC 25922, the methicillin-resistant strain of S. aureus, ATCC BAA-44, P. aeruginosa ATCC 25668 and S. epidermidis ATCC 700565 was a kind gift of Prof. Elena Reddi (Dept. of Biology, University of Padova, Italy). Cultures were maintained in Luria Bertani (LB) agar. MICs (Minimal inhibitory concentrations) of the peptides were determined using the broth microdilution method. Two-fold serial dilutions of each peptide, from 1 to 64 μM, were prepared in LB and 50 μl per well were arranged in sterile 96-well plates (Falcon). Then, an aliquot of bacterial cell suspension was added to each well, at a final concentration of 5×10^5 CFU/ml.
# [2] = Cytotoxicity on human cells, MTS reduction and LDH release; assay type: cell-based; conditions: human, from MTS and LDH EC50 values, compared with trichogin, all cell models, read-out: reduction of cytocidal effect / cell toxicity (% inhibition)
# Protocol: (§2) To monitor the possible differential cytocidal effect of trichogin and its analogs on human cells (healthy and cancer cells, non-leukocytes and leukocytes), we incubated the peptides with (i) primary human leukocytes (lymphocytes, PMNs and monocytes), freshly isolated from blood of healthy donors (ii) the monocytes-like HL60 cell line from human myeloid leukemia, and (iii) three tumor-derived non-leukocyte cells lines: HeLa ([…]), A431 (human epidermoid carcinoma) and A549 (human lung carcinoma) and the in vitro stabilized line CCD34Lu (from human normal lung).
# (§3) HeLa, A431 and CCD34-Lu cells were maintained in DMEM medium (Gibco), A549 in F12 medium (Gibco) and HL60 in RPMI medium (Gibco), supplemented with 10% FCS (Euroclone) and antibiotics (penicillin and streptomycin, 100 U/ml, Invitrogen) at 37 °C in a humidified atmosphere containing 5% (v/v) CO2; cells were split every 2–3 days. Human monocytes, polymorphonuclear leukocytes (PMNs) and lymphocytes were purified from buffy coats of healthy donors, kindly provided by the Centro Immunotrasfusionale, Hospital of Padova. Briefly, for monocyte purification, peripheral blood mononuclear cells (PBMC) were isolated from buffy coats of healthy donors by density gradient centrifugation on Ficoll-Paque Plus (GE Health care), which density is optimized for the isolation of mononuclear cells. Separate monocyte and T-cell fractions were obtained from PBMCs by Percoll density gradient centrifugation (GE Health care); residual lymphocytes were removed by incubation in 2% fetal calf serum (FCS) RPMI at 37 °C and subsequently washed to eliminate non adherent cells. Unless otherwise specified, cells were kept at 37 °C in a humidified atmosphere containing 5% (v/v) CO2 in RPMI-1640 supplemented with 10% FCS. For PMNs purification, the pellet of cells obtained after the centrifugation on Ficoll gradient was subjected to dextran erythrocytes precipitation; residual erythrocytes were removed by hypotonic lysis in 155 mM NH4Cl, 10 mM KHCO3, and […] Na2EDTA at pH 7.4 and cells were cultured in RPMI medium, supplemented with 10% FCS. For lymphocytes preparation, buffy coats were incubated with 50 μl/ml of Rosette Sep® Human T Cell Enrichment Cocktail (StemCell Technologies). Blood was then centrifuged over a Ficoll gradient and cells were cultured in RPMI medium, supplemented with 10% FCS.
# (§4) Twenty-four hours before the experiment, A431, HeLa, A549 and CC34-Lu cells were detached by means of trypsin treatment (Gibco), counted and seeded onto a 96 wells/plate (8×10^3 cells/well, Falcon). After purification, monocytes were seeded onto a 96 wells/plate (2×10^6/well) and left to adhere to the plastic; then cells were immediately treated with stimuli. PMNs and lymphocytes (2×10^6 cells/well) and HL60 cells (40×10^3) were seeded onto cell plates and subsequently treated. Different peptides were diluted in culture medium (from 20 μM to 1 μM) and added to the cells. As a […] control cells were treated with medium without stimuli. Twenty-four hours after treatment, the cell supernatant was collected for subsequent assay (LDH assay) and cells were tested using a CellTiter 96® AQueous One Solution Reagent (Promega). Plates were read with an ELISA reader (Amersham Biosciences) at 492 nm. Data were expressed as % of absorbance value compared to untreated cells (assumed as 100% viable). Alternatively, the EC50 (the concentration of drug where 50% of cells died) was calculated for each peptide and each kind of tested cell.
# (§5) 50 μl of the cell supernatant was tested with a CytoTox 96® Non-Radioactive Cytotoxicity Assay kit (Promega). EC50 (the concentration of drug that induced the lysis of 50% of the total cell number) was calculated for each peptide and each kind of tested cell.
# [3] = tested on: S. aureus, ATCC BAA-44 (methicillin-resistant strain); assay type: cell-based, Staphylococcus aureus
# Protocol: as §1
# E. coli ATCC 25922 = assay type: cell-based, Escherichia coli
# Protocol: as §1
# P. aeruginosa ATCC 25668 = assay type: cell-based, Pseudomonas aeruginosa
# Protocol: as §1
# [4] = tested on: Gram^− and Gram^+ bacteria; experiment: Antibacterial activity, all strains taken together; assay type: cell-based; conditions: additional U at position 6 or U1 replaced with L; in words
# Protocol: as §1
# [5] = tested on: human cells (lymphocytes, PMNs, monocytes, HL60, HeLa, A431, A549, CCD34Lu); experiment: Cytotoxicity on human cells, MTS reduction and LDH release; assay type: cell-based; conditions: 24 h, MTS/LDH EC50, all tested cells; in words
# Protocol: as §2, §3, §4, §5
# [6] = after 24 h at 37 °C, broth microdilution in LB, 5×10^5 CFU/ml, ±SE, N≥4, peptide dose range 0–64 µM
Compound,"MIC S. epidermis [1, 6] [µM]",inhibition at 24 h [2] [%],"change of anti S. aureus activity compared with trichogin ([3]; MIC after 24 h, in words)","MIC S. aureus [3, 6] [µM]",MIC E. coli (E. coli ATCC 25922; [6]) [µM],MIC P. aeruginosa (P. aeruginosa ATCC 25668; [6]) [µM],"MIC S. epidermis ([1]; ATCC 700565, 24 h) [µM]",antibacterial activity compared with the K-containing analogs [4],cytotoxicity compared with trichogin or the corresponding analog [5],"MIC S. aureus ([3]; ATCC BAA-44, 24 h) [µM]","MIC E. coli (E. coli ATCC 25922; ATCC 25922, 24 h) [µM]","MIC P. aeruginosa (P. aeruginosa ATCC 25668; ATCC 25668, 24 h) [µM]"
CCCCCCCC(=O)NC(C)(C)C(=O)NCC(=O)N[C@@H](CC(C)C)C(=O)N[C@@H](CC(C)C)C(=O)NCC(=O)NCC(=O)N[C@@H](CC(C)C)C(=O)NC(C)(C)C(=O)NCC(=O)N[C@H](C(=O)N[C@H](CO)CC(C)C)[C@@H](C)CC [L4] (Octanoyl-[Aib]GLLGGL[Aib]GI[Leu(ol)]),>64,50 to 70,no such increase,>64,>64,>64,–,–,–,–,–,–
CCCCCCCC(=O)NC(C)(C)C(=O)N[C@@H](CCCCN)C(=O)N[C@@H](CC(C)C)C(=O)NC(C)(C)C(=O)N[C@@H](CCCCN)C(=O)NC(C)(C)C(=O)N[C@@H](CC(C)C)C(=O)NC(C)(C)C(=O)N[C@@H](CCCCN)C(=O)N[C@H](C(=O)N[C@H](CO)CC(C)C)[C@@H](C)CC [K2K5K9U6] (Octanoyl-[Aib]KL[Aib]K[Aib]L[Aib]KI[Leu(ol)]),–,–,–,–,–,–,8 ± 0,failed to increase the antibacterial activity,increased cytotoxicity,4 ± 0,8 ± 0,8 ± 0
CCCCCCCC(=O)N[C@@H](CC(C)C)C(=O)N[C@@H](CCCCN)C(=O)N[C@@H](CC(C)C)C(=O)NC(C)(C)C(=O)NCC(=O)NCC(=O)N[C@@H](CC(C)C)C(=O)NC(C)(C)C(=O)NCC(=O)N[C@H](C(=O)N[C@H](CO)CC(C)C)[C@@H](C)CC [L1K2] (Octanoyl-LKL[Aib]GGL[Aib]GI[Leu(ol)]),–,–,–,–,–,–,4.7 ± 1.6,failed to increase the antibacterial activity,not significantly different,4.6 ± 1.5,22.9 ± 8.6,>64
CCCCCCCC(=O)N[C@@H](CC(C)C)C(=O)NCC(=O)N[C@@H](CC(C)C)C(=O)NC(C)(C)C(=O)NCC(=O)NCC(=O)N[C@@H](CC(C)C)C(=O)N[C@@H](CC(C)C)C(=O)NCC(=O)N[C@H](C(=O)N[C@H](CO)CC(C)C)[C@@H](C)CC [L1L8] (Octanoyl-LGL[Aib]GGLLGI[Leu(ol)]),–,–,–,–,–,–,>64,–,–,32 ± 0,>64,>64
CCCCCCCC(=O)N[C@@H](CC(C)C)C(=O)NCC(=O)N[C@@H](CC(C)C)C(=O)N[C@@H](CC(C)C)C(=O)NCC(=O)NCC(=O)N[C@@H](CC(C)C)C(=O)N[C@@H](CC(C)C)C(=O)NCC(=O)N[C@H](C(=O)N[C@H](CO)CC(C)C)[C@@H](C)CC [L1L4L8] (Octanoyl-LGLLGGLLGI[Leu(ol)]),–,50 to 70,–,–,–,–,–,–,–,–,–,–
CCCCCCCC(=O)NC(C)(C)C(=O)NCC(=O)N[C@@H](CC(C)C)C(=O)NC(C)(C)C(=O)N[C@@H](CCCCN)C(=O)N[C@@H](CCCCN)C(=O)N[C@@H](CC(C)C)C(=O)NC(C)(C)C(=O)NCC(=O)N[C@H](C(=O)N[C@H](CO)CC(C)C)[C@@H](C)CC [K5K6],–,50 to 60,–,–,–,–,4 ± 1,–,–,4 ± 0,16 ± 0,16 ± 0
CCCCCCCC(=O)NC(C)(C)C(=O)N[C@@H](CCCCN)C(=O)N[C@@H](CC(C)C)C(=O)NC(C)(C)C(=O)N[C@@H](CCCCN)C(=O)NCC(=O)N[C@@H](CC(C)C)C(=O)NC(C)(C)C(=O)NCC(=O)N[C@H](C(=O)N[C@H](CO)CC(C)C)[C@@H](C)CC [K2K5] (Octanoyl-[Aib]KL[Aib]KGL[Aib]GI[Leu(ol)]),–,–,–,–,–,–,5 ± 2.4,–,–,3.3 ± 1.3,13.7 ± 3.9,16 ± 5
CCCCCCCC(=O)NC(C)(C)C(=O)NCC(=O)N[C@@H](CC(C)C)C(=O)NC(C)(C)C(=O)N[C@@H](CCCCN)C(=O)NCC(=O)N[C@@H](CC(C)C)C(=O)NC(C)(C)C(=O)NCC(=O)N[C@H](C(=O)N[C@H](CO)CC(C)C)[C@@H](C)CC [K5] (Octanoyl-[Aib]GL[Aib]KGL[Aib]GI[Leu(ol)]),2 ± 0,–,–,1 ± 0,–,–,–,–,–,–,8 ± 2,>64
CCCCCCCC(=O)N[C@@H](CC(C)C)C(=O)NCC(=O)N[C@@H](CC(C)C)C(=O)NC(C)(C)C(=O)NCC(=O)NCC(=O)N[C@@H](CC(C)C)C(=O)NC(C)(C)C(=O)N[C@@H](CCCCN)C(=O)N[C@H](C(=O)N[C@H](CO)CC(C)C)[C@@H](C)CC [L1K9] (Octanoyl-LGL[Aib]GGL[Aib]KI[Leu(ol)]),4.6 ± 1.5,–,–,4.7 ± 1.6,41.1 ± 15.6,>64,–,failed to increase the antibacterial activity,not significantly different,–,–,–
CCCCCCCC(=O)NC(C)(C)C(=O)N[C@@H](CCCCN)C(=O)N[C@@H](CC(C)C)C(=O)NC(C)(C)C(=O)NCC(=O)N[C@@H](CCCCN)C(=O)N[C@@H](CC(C)C)C(=O)NC(C)(C)C(=O)NCC(=O)N[C@H](C(=O)N[C@H](CO)CC(C)C)[C@@H](C)CC [K2K6] (Octanoyl-[Aib]KL[Aib]GKL[Aib]GI[Leu(ol)]),–,–,–,–,–,–,3.2 ± 2.6,–,–,2.8 ± 1.1,12.6 ± 4.3,17.6 ± 8.8
CCCCCCCC(=O)NC(C)(C)C(=O)N[C@@H](CCCCN)C(=O)N[C@@H](CC(C)C)C(=O)NC(C)(C)C(=O)N[C@@H](CCCCN)C(=O)NCC(=O)N[C@@H](CC(C)C)C(=O)NC(C)(C)C(=O)N[C@@H](CCCCN)C(=O)N[C@H](C(=O)N[C@H](CO)CC(C)C)[C@@H](C)CC [K2K5K9] (Octanoyl-[Aib]KL[Aib]KGL[Aib]KI[Leu(ol)]),–,–,–,–,–,–,4 ± 0.9,–,–,4.3 ± 1.8,14.9 ± 8.6,13.3 ± 4.1
